# Assay results as given in PubChem BioAssay (NCI).
#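 Five concentrations, 48 hours, 96-well plates. At the GI50, growth is halved. TGI: total growth inhibition.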
# Columns and labels:
# Experiment in all cases: NCI anticancer screen, dose series, 48 h
# [1] = system: 786-0 renal
# [2] = system: A498 renal
# [3] = system: A549 NSCLC
# [4] = system: ACHN renal
# [5] = system: BT-549 breast
# [6] = system: CAKI-1 renal
# [7] = system: CCRF-CEM leukemia
# [8] = system: COLO 205 colon
# [9] = system: DU-145 prostate
# [10] = system: EKVX NSCLC
# [11] = system: HCC-2998 colon
# [12] = system: HCT-116 colon
# [13] = system: HCT-15 colon
# [14] = system: HL-60(TB) leukemia
# [15] = system: HOP-62 NSCLC
# [16] = system: HOP-92 NSCLC
# [17] = system: HS 578T breast
# [18] = system: HT29 colon
# [19] = system: IGROV1 ovarian
# [20] = system: K-562 leukemia
# [21] = system: KM12 colon
# [22] = system: LOX IMVI melanoma
# [23] = system: M14 melanoma
# [24] = system: MALME-3M melanoma
# [25] = system: MCF7 breast
# [26] = system: MDA-MB-231 breast
# [27] = system: MDA-MB-435
# [28] = system: MOLT-4 leukemia
# [29] = system: NCI-H226 lung
# [30] = system: NCI-H23 lung
# [31] = system: NCI-H460 lung
# [32] = system: NCI-H522 lung
# [33] = system: NCI/ADR-RES ovarian
# [34] = system: OVCAR-4 ovarian
# [35] = system: OVCAR-5 ovarian
# [36] = system: OVCAR-8 ovarian
# [37] = system: PC-3 prostate
# [38] = system: RPMI-8226 leukemia
# [39] = system: RXF 393 renal
# [40] = system: SF-268 CNS
# [41] = system: SF-295 CNS
# [42] = system: SF-539 CNS
# [43] = system: SK-MEL-2 melanoma
# [44] = system: SK-MEL-28 melanoma
# [45] = system: SK-MEL-5 melanoma
# [46] = system: SK-OV-3 ovarian
# [47] = system: SN12C renal
# [48] = system: SNB-19 CNS
# [49] = system: SNB-75 CNS
# [50] = system: SR leukemia
# [51] = system: SW-620 colon
# [52] = system: T-47D breast
# [53] = system: TK-10 renal
# [54] = system: U251 CNS
# [55] = system: UACC-257 melanoma
# [56] = system: UACC-62 melanoma
# [57] = system: UO-31 renal
compound,measurement,setting,value
CC(Nc1c(C#N)cnc2ccc(-c3cnc(N)nc3)cc12)c1ccccc1 (stereo not drawn),GI50,[1],1360 nM
same,TGI,[1],10.2 µM
same,GI50,[2],199 nM
same,TGI,[2],1040 nM
same,GI50,[3],1030 nM
same,TGI,[3],11.7 µM
same,GI50,[4],785 nM
same,TGI,[4],13.2 µM
same,GI50,[5],410 nM
same,TGI,[5],4.51 µM
same,GI50,[6],441 nM
same,TGI,[6],4.28 µM
same,GI50,[7],1000 nM
same,TGI,[7],40.2 µM
same,GI50,[8],1780 nM
same,TGI,[8],6.82 µM
same,GI50,[9],796 nM
same,TGI,[9],13.3 µM
same,GI50,[10],857 nM
same,TGI,[10],> 23.8 µM
same,GI50,[11],2000 nM
same,TGI,[11],13.6 µM
same,GI50,[12],1710 nM
same,TGI,[12],5.93 µM
same,GI50,[13],1240 nM
same,TGI,[13],> 38.6 µM
same,GI50,[14],2460 nM
same,TGI,[14],> 39.5 µM
same,GI50,[15],1090 nM
same,TGI,[15],9.82 µM
same,GI50,[16],138 nM
same,TGI,[16],827 nM
same,GI50,[17],422 nM
same,TGI,[17],2840 nM
same,GI50,[18],1630 nM
same,TGI,[18],13.9 µM
same,GI50,[19],374 nM
same,TGI,[19],2400 nM
same,GI50,[20],2160 nM
same,TGI,[20],> 100 µM
same,GI50,[21],1750 nM
same,TGI,[21],8.64 µM
same,GI50,[22],915 nM
same,TGI,[22],5.85 µM
same,GI50,[23],1560 nM
same,TGI,[23],11.2 µM
same,GI50,[24],527 nM
same,TGI,[24],3.79 µM
same,GI50,[25],640 nM
same,TGI,[25],> 35.3 µM
same,GI50,[26],850 nM
same,TGI,[26],16.8 µM
same,GI50,[27],1670 nM
same,TGI,[27],9.57 µM
same,GI50,[28],870 nM
same,TGI,[28],6.14 µM
same,GI50,[29],1530 nM
same,TGI,[29],16.6 µM
same,GI50,[30],1700 nM
same,TGI,[30],11 µM
same,GI50,[31],987 nM
same,TGI,[31],11.6 µM
same,GI50,[32],2200 nM
same,TGI,[32],10.5 µM
same,GI50,[33],2340 nM
same,TGI,[33],28.3 µM
same,GI50,[34],527 nM
same,TGI,[34],4.76 µM
same,GI50,[35],787 nM
same,TGI,[35],13.6 µM
same,GI50,[36],1720 nM
same,TGI,[36],11.6 µM
same,GI50,[37],720 nM
same,TGI,[37],10.6 µM
same,GI50,[38],382 nM
same,TGI,[38],2960 nM
same,GI50,[39],559 nM
same,TGI,[39],3.9 µM
same,GI50,[40],1240 nM
same,TGI,[40],8.79 µM
same,GI50,[41],1080 nM
same,TGI,[41],> 23.1 µM
same,GI50,[42],1310 nM
same,TGI,[42],5.98 µM
same,GI50,[43],1120 nM
same,TGI,[43],2950 nM
same,GI50,[44],1590 nM
same,TGI,[44],8.97 µM
same,GI50,[45],1520 nM
same,TGI,[45],3.09 µM
same,GI50,[46],1210 nM
same,TGI,[46],5.72 µM
same,GI50,[47],765 nM
same,TGI,[47],14.8 µM
same,GI50,[48],1590 nM
same,TGI,[48],20 µM
same,GI50,[49],258 nM
same,TGI,[49],2450 nM
same,GI50,[50],741 nM
same,TGI,[50],> 43.4 µM
same,GI50,[51],2620 nM
same,TGI,[51],12.2 µM
same,GI50,[52],446 nM
same,GI50,[53],206 nM
same,TGI,[53],1860 nM
same,GI50,[54],1550 nM
same,TGI,[54],11.2 µM
same,GI50,[55],2110 nM
same,TGI,[55],10.5 µM
same,GI50,[56],1080 nM
same,TGI,[56],4.53 µM
same,GI50,[57],252 nM
same,TGI,[57],5.84 µM
